Assays:
Jurkat cells = assay: comet assay (single cell gel electrophoresis): protection of DNA of intact cells exposed to H2O2; assay type: cell-based; conditions: H2O2 generated by glucose oxidase; for protective activity on cells against oxidative stress (decrease of induced DNA damage): 10 min exposure
Procedure: In the analysis of the antioxidant activity of the extracts I, II, III and IV, as well as, of the pure Compounds 1-9, a method based on measuring the relative protection of DNA of intact cells was performed. This was done with the use of Jurkat cell cultures (a cell line of T-lymph-cells), which were grown in RPMI-1640 enriched with fetal bovine calf serum (10%), penicillin, streptomycin and glutamine. The cells were incubated with the extracts or the purified compounds in the presence of glucose oxidase (60 ng/100 ml) used for the generation of H2O2. After exposure of the cells to H2O2 for 10 min, the degree of DNA damage was evaluated using a specialized method, “single cell gel electrophoresis”, also known as the “comet assay”. The comet assay method is described in the following references: 1. Barbouti A. et al., “DNA Damage And Apoptosis In Hydrogen Peroxide-Exposed Jurkat Cells: Bolus Addition Versus Continuous Generation Of H2O2,” Free Radical Biology and Medicine, 33(5): 691-702, Elsevier Press (2002); as well as Panagiotidis M. et al. (1999) Free Radical Biology and Medicine, 26(5-6): 548-556; Doulias P-T. et al. (2001) Free Radical Biology and Medicine, 30(6): 679-685; Tselepis A. et al. (2001) Free Radical Biology and Medicine, 30(12): 1357-1364; and Barbouti A. et al. (2001) Free Radical Biology and Medicine, 31(4): 490-498 5.
Jurkat cells—a cell line of lymphocytic origin—were exposed to continuously generated hydrogen peroxide, H2O2 and the effects of this treatment on cellular DNA was evaluated according to the references above. […]
The graphic results of the “comet assay” for the waste water extract (IV) and tyrosol (Compound 4), 2-(5-ethylidene-2-oxo-tetrahydropyran-4-yl) acetic acid (from the compound class of lactones or Compound 6) and hydroxytyrosol (Compound 7) are depicted below in FIGS. 3-6, respectively. […] The values are expressed as mean ±SD (n=3).

[1] = antioxidant ability by usual chemical methods (e.g. DPPH)

SMILES	protective activity on cells against oxidative stress (decrease of induced DNA damage) (Jurkat cells)	dose dependence of protection (Jurkat cells)	antioxidant ability [1]
OCCc1ccc(O)cc1 [tyrosol, Tyrosol]	not	–	–
CC=C1COC(=O)CC1CC(=O)O (stereo not shown) [2-(5-ethylidene-2-oxo-tetrahydropyran-4-yl) acetic acid]	strong protective activity	dose-dependent protection	does not show any antioxidant ability
